Experimental data published in publication PMC4232510, “Identification of Functionally Important Residues of the Rat P2X4 Receptor by Alanine Scanning Mutagenesis of the Dorsal Fin and Left Flipper Domains” (PLoS ONE, 2014).
Where a chain is given by its changes, count along the chain named.

What was measured:
Experiment in all cases: whole-cell patch clamp, HEK293T cells expressing mutant
Type in all cases: cell-based
Settings in all cases: for relative responsiveness: 100 µM agonist 2 s, relative to ATP (100%)
rP2X4R S212A mutant = target: T1, rP2X4R S212A mutant (Rattus norvegicus, UniProt P51577, S212A)
T1 construct: expressed in transfected cells; host or cells: HEK293T
T1 sequence (P51577 1-388 S212A): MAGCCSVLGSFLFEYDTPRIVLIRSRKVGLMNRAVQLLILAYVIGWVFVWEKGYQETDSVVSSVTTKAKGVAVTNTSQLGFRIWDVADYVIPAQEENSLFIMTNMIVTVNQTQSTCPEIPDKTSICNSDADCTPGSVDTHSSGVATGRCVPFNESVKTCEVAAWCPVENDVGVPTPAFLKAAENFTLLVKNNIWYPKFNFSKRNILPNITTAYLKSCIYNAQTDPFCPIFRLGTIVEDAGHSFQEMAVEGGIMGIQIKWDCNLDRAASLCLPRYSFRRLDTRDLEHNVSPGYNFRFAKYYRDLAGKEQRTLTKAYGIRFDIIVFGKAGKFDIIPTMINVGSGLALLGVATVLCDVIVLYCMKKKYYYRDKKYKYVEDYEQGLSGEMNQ

rP2X4R T210A mutant = target: T2, rP2X4R T210A mutant (Rattus norvegicus, UniProt P51577, T210A)
T2 construct: expressed in transfected cells; host or cells: HEK293T
T2 sequence (P51577 1-388 T210A): T1 sequence (P51577 1-388 S212A) with T210A, A212S

rP2X4R T281A mutant = target: T3, rP2X4R T281A mutant (Rattus norvegicus, UniProt P51577, T281A)
T3 construct: expressed in transfected cells; host or cells: HEK293T
T3 sequence (P51577 1-388 T281A): T1 sequence (P51577 1-388 S212A) with A212S, T281A

[1] = 3 µM IVM 4-6 min vs IVM-untreated
[2] = 100 µM ATP 60 s, biexponential fit
[3] = contribution of τdes2, 100 µM ATP 60 s
[4] = decay after removal of 1 or 3 µM ATP, 3 µM IVM
[5] = naïve receptors, 2–5 s application

2′(3′-O-(4-Benzoylbenzoyl)adenosine 5′-triphosphate [BzATP]
relative responsiveness (rP2X4R S212A mutant): 47.5±5.2% | relative responsiveness (rP2X4R T210A mutant): 23.9±3.2 % | relative responsiveness (rP2X4R T281A mutant): 26.7±3.9%

CC[C@H](C)[C@H]1O[C@]2(CC[C@@H]1C)C[C@@H]1C[C@@H](C/C=C(\C)[C@@H](O[C@H]3C[C@H](OC)[C@@H](O[C@H]4C[C@H](OC)[C@@H](O)[C@H](C)O4)[C@H](C)O3)[C@@H](C)/C=C/C=C3\CO[C@@H]4[C@H](O)C(C)=C[C@@H](C(=O)O1)[C@]34O)O2 [IVM, ivermectin]
Fold incr. Imax (rP2X4R S212A mutant; [1]): 1.6 ± 0.2 fold | Fold incr. Imax (rP2X4R T210A mutant; [1]): 1.8 ± 0.2 fold | Fold incr. Imax (rP2X4R T281A mutant; [1]): 2.1 ± 0.2 fold

CSc1nc(N)c2ncn([C@@H]3O[C@H](COP(=O)(O)OP(=O)(O)OP(=O)(O)O)[C@@H](O)[C@H]3O)c2n1 [2-MeS-ATP, 2-(Methylthio)adenosine 5′-triphosphate]
relative responsiveness (rP2X4R S212A mutant): 65.1±19.7% | relative responsiveness (rP2X4R T210A mutant): 59.2±6.9% | relative responsiveness (rP2X4R T281A mutant): 69.6±5.1%

Nc1ncnc2c1ncn2[C@@H]1O[C@H](CO[P@](=O)(O)O[P@](=O)(O)O[P@@](=O)(O)S)[C@@H](O)[C@H]1O [ATPγS, Adenosine 5′-(γ-thio)triphosphate]
relative responsiveness (rP2X4R S212A mutant): 61.7±3.9% | relative responsiveness (rP2X4R T210A mutant): 34.2±4.1 % | relative responsiveness (rP2X4R T281A mutant): 50.2±5.9%

Nc1ncnc2c1ncn2[C@@H]1O[C@H](COP(=O)(O)OP(=O)(O)OP(=O)(O)O)[C@@H](O)[C@H]1O [ATP]
τdes1 (rP2X4R S212A mutant; [2]): 1.7 ± 0.4 s | τdes2 (rP2X4R S212A mutant; [2]): 11.4 ± 1.5 s | Imax (rP2X4R S212A mutant; 100–1000 µM ATP): 2.1 ± 0.2 nA | Imax+IVM (rP2X4R S212A mutant; ATP after 3 µM IVM 4-6 min): 3.4 ± 0.2 nA | A2 /(A1+A2) (rP2X4R S212A mutant; [3]): 62 ± 5% | τoff +IVM (rP2X4R S212A mutant; [4]): 20 ± 5.0 s | EC50 (rP2X4R S212A mutant; [5]): 4.8 ± 1.2 µM | τdes (rP2X4R S212A mutant; weighted, 100 µM ATP 60 s): 7.8 ± 1.1 s | τdes1 (rP2X4R T210A mutant; [2]): 2.0 ± 0.3 s | τdes2 (rP2X4R T210A mutant; [2]): 14.4 ± 2.5 s | Imax (rP2X4R T210A mutant; 100–1000 µM ATP): 1.9 ± 0.2 nA | Imax+IVM (rP2X4R T210A mutant; ATP after 3 µM IVM 4-6 min): 3.5 ± 0.6 nA | A2 /(A1+A2) (rP2X4R T210A mutant; [3]): 52 ± 8% | τoff +IVM (rP2X4R T210A mutant; [4]): 5.5 ± 0.4 s | EC50 (rP2X4R T210A mutant; [5]): 26 ± 2.6 µM | τdes (rP2X4R T210A mutant; weighted, 100 µM ATP 60 s): 8.9 ± 2.1 s | τdes1 (rP2X4R T281A mutant; [2]): 2.4 ± 0.4 s | τdes2 (rP2X4R T281A mutant; [2]): 15.6 ± 2.3 s | Imax (rP2X4R T281A mutant; 100–1000 µM ATP): 2.3 ± 0.3 nA | Imax+IVM (rP2X4R T281A mutant; ATP after 3 µM IVM 4-6 min): 4.8 ± 0.9 nA | A2 /(A1+A2) (rP2X4R T281A mutant; [3]): 72 ± 12% | τoff +IVM (rP2X4R T281A mutant; [4]): 13 ± 1.0 s | EC50 (rP2X4R T281A mutant; [5]): 8.2 ± 2.8 µM | τdes (rP2X4R T281A mutant; weighted, 100 µM ATP 60 s): 12 ± 2.4 s

Nc1ncnc2c1ncn2C1OC(COP(=O)(O)CP(=O)(O)OP(=O)(O)O)C(O)C1O (stereo not drawn) [α,β-meATP, α,β-methyleneadenosine 5′-triphosphate]
relative responsiveness (rP2X4R S212A mutant): 19.2±6.2% | relative responsiveness (rP2X4R T210A mutant): 8.8±2.3 % | relative responsiveness (rP2X4R T281A mutant): 28.2±5.5%
